Data reported in patent US8680059B2, “Oligopeptide acetate and formulations thereof” (Biotempt B.V., priority 1998, dated 2014).
Several values for one entry are separate records, joined by “and”; a condition that tells them apart may be missing. Equal values may be shown once.

Legend:
[1] = tested on: mice, 25 minutes renal ischemia/reperfusion; assay: Mouse renal ischemia reperfusion test (mortality, BUN/serum urea); assay type: in vivo; set-up: BUN, mean / Urea level: unit not given here; conditions: for BUN, mean: 5 mg/kg i.v.
Method: SEQ ID NO:2 was tested and compared with PBS (control) in a double blind animal study for the peptide's relative ability to aid recovery in a mouse renal ischemia reperfusion test. In this test, the mice were anesthetized, and one kidney from each mouse was removed. The other kidney was tied off for 25 minutes, and the serum urea levels were allowed to increase. Both before and after tying off, the peptide was administered to thirty (30) different mice (5 mg oligopeptide/kg body mass intravenously), after which, the mortality of the mice was determined for each oligopeptide as well as was the BUN concentration at two hours, 24 hours and 72 hours.
Under inhalation anesthesia, the left kidney with its artery and vein was isolated and occluded for 25 minutes using a microvascular clamp. During surgery animals were placed on a heating path to maintain body temperature at 37° C. Five minutes before placing the clamp, and 5 minutes before releasing the clamp, 5 mg/kg of peptide, dissolved in 0.1 mL of sterile saline, was administered intravenously. After reperfusion of the left kidney the right kidney was removed. Kidney function was assessed by measuring blood urea nitrogen before clamping, and at 2, 24, and 72 hours after reperfusion.
To determine dose-response relationships SEQ ID NO:2, was tested in a dose-response manner in the mice test as described above. Peptides were tested at 0.3, 1, 3, 10 and 30 mg/kg dosages given as described in Example I. Serum urea levels are presented in Table 3.

[2] = tested on: BALB/c mice injected i.p. with LPS (E. coli 026:B6); assay: LPS-induced septic shock (endotoxin model) in BALB/c mice; assay type: in vivo, mouse; set-up: key to Sickness score of individual mouse: 0: No abnormalities.; 1: Percolated fur, but no detectable behavior differences compared to normal mice.; 2: Percolated fur, huddle reflex, responds to stimuli (such as tap on cage), just as active during handling as healthy mouse.; 3: Slower response to tap on cage, passive or docile when handled, but still curious when alone in a new setting.; 4: Lack of curiosity, little or no response to stimuli, quite immobile.; 5: Labored breathing, inability or slow to self-right after being rolled onto back (moribund, sacrificed).; Dead; conditions: for number of mice with sickness score 1 / number of mice with sickness score 2: peptide twice (t = 2 hr and 24 hr) 5 mg/kg; for Survival %: group of 6, 48 hrs
Method: Mice used in sepsis or septic shock experiments: Female BALB/c mice of 8-12 weeks of age were used for all experiments. The animals were bred in our facility under specific pathogen-free conditions according to the protocols described in the Report of European Laboratory Animal Science Associations (FELASA) Working group on Animal Health (Laboratory Animals 28: 1-24, 1994).
Injection protocols: For the endotoxin model, BALB/c mice were injected i.p. with 150-300 μg LPS (E. coli 026:B6; Difco Lab., Detroit, Mich., USA). Control groups were treated with PBS i.p. only. To test the effect of peptides, they were dissolved in PBS and injected i.p. at predetermined points in time after LPS treatment.
Mice were scored for sickness severity using the following measurement scheme: • 0 No abnormalities. • 1 Percolated fur, but no detectable behavior differences compared to normal mice. • 2 Percolated fur, huddle reflex, responds to stimuli (such as tap on cage), just as active during handling as healthy mouse. • 3 Slower response to tap on cage, passive or docile when handled, but still curious when alone in a new setting. • 4 Lack of curiosity, little or no response to stimuli, quite immobile. • 5 Labored breathing, inability or slow to self-right after being rolled onto back (moribund, sacrificed). • D Dead […]
A comparative trial was set up to compare peptide MTR and SEQ ID NO:2. The comparative trial comprised 6 groups of 6 animals; two groups (1A and 1B) receiving placebo (PBS), one group (2) peptide MTR (source Pepscan, Lelystad, NL), one group (3) receiving peptide MTR (source Ansynth), one group (4) receiving peptide SEQ ID NO:2 (source Pepscan) and one group peptide SEQ ID NO:2 (source Ansynth). Peptide/placebo in these groups was administered 2 hours after LPS. LPS (source) was used at 10-11 mg/kg. Sickness scores were done at 0, 2, 22 26 42 and 48 hours after LPS injection.

[3] = 5 mg/kg i.p. given both early (2 hours) or late (24 hours)

AQGV [tetrapeptide derived from human chorionic gonadotropin, alanine replacement of LQGV]
Mortality in dose-response experiment ([1]; 0.3 mg/kg, 24 h): 0-9 | Urea level ([1]; 0.3 mg/kg, 24 h): 62.4 | Mortality in dose-response experiment ([1]; 0.3 mg/kg, 72 h): 2-10 | Urea level ([1]; 0.3 mg/kg, 72 h): 86.7 | Mortality in dose-response experiment ([1]; 1.0 mg/kg, 24 h): 0-10 | Urea level ([1]; 1.0 mg/kg, 24 h): 50.0 | Mortality in dose-response experiment ([1]; 1.0 mg/kg, 72 h): 1-8 | Urea level ([1]; 1.0 mg/kg, 72 h): 52.6 | Mortality in dose-response experiment ([1]; 3.0 mg/kg, 24 h): 1-10 | Urea level ([1]; 3.0 mg/kg, 24 h): 37.4 | Mortality in dose-response experiment ([1]; 3.0 mg/kg, 72 h): 0-10 | Urea level ([1]; 3.0 mg/kg, 72 h): 19.6 | mortality at 72 hours post-reperfusion ([1]; 5 mg/kg i.v. before and after clamping, dead/total): 0/10 | Mortality in dose-response experiment ([1]; 10.0 mg/kg, 24 h): 0-10 | Urea level ([1]; 10.0 mg/kg, 24 h): 41.2 | Mortality in dose-response experiment ([1]; 10.0 mg/kg, 72 h): 0-8 | Urea level ([1]; 10.0 mg/kg, 72 h): 37.1 | Mortality in dose-response experiment ([1]; 30.0 mg/kg, 24 h): 0-8 | Urea level ([1]; 30.0 mg/kg, 24 h): 47.8 | Mortality in dose-response experiment ([1]; 30.0 mg/kg, 72 h): 3-10 | Urea level ([1]; 30.0 mg/kg, 72 h): 38.0 | BUN, mean ([1]; 2 hr after reperfusion): 16.62 | BUN, mean ([1]; 24 hr after reperfusion): 26.36 | BUN, mean ([1]; 72 hr after reperfusion): 22.31 | BUN, mean ([1]; t = 0 hr (before clamping)): 9.713 | clinical signs of shock at 84 hours after LPS-treatment [2, 3]: no remaining clinical signs of shock | survival at 84 hours after LPS-treatment [2, 3]: 100% | number of mice with sickness score 1 ([2]; LPS dose 10.5, t = 24 hr): 2 | number of mice with sickness score 2 ([2]; LPS dose 10.5, t = 24 hr): 3 | number of mice with sickness score 1 ([2]; LPS dose 10.5, t = 48 hr): 5 | number of mice with sickness score 1 ([2]; LPS dose 11, t = 24 hr): 2 | number of mice with sickness score 2 ([2]; LPS dose 11, t = 24 hr): 4 | number of mice with sickness score 1 ([2]; LPS dose 11, t = 48 hr): 6 | % survival ([2]; single injection 5 mg/kg 2 hours after LPS (300 μg), time 0 hours): 100% | % survival ([2]; single injection 5 mg/kg 2 hours after LPS, time 14 hours): 100% | % survival ([2]; single injection 5 mg/kg 2 hours after LPS, time 24 hours): 100% | % survival ([2]; single injection 5 mg/kg 2 hours after LPS, time 48 hours): 100% | % survival ([2]; single injection 5 mg/kg 2 hours after LPS, time 84 hours): 100% | % survival ([2]; single injection 5 mg/kg 24 hours after LPS (300 μg), time 0 hours): 100% | % survival ([2]; single injection 5 mg/kg 24 hours after LPS, time 14 hours): 100% | % survival ([2]; single injection 5 mg/kg 24 hours after LPS, time 24 hours): 100% | % survival ([2]; single injection 5 mg/kg 24 hours after LPS, time 48 hours): 100% | % survival ([2]; single injection 5 mg/kg 24 hours after LPS, time 84 hours): 100% | Sickness score of individual mouse ([2]; source Ansynth (#Ansynth 12/46) 2 hours after LPS 10-11 mg/kg, 0 hrs (before peptide)): 0 | Sickness score of individual mouse ([2]; source Ansynth (#Ansynth 12/46) 2 hours after LPS 10-11 mg/kg, 2 hrs (at peptide administration)): 2 | Sickness score of individual mouse ([2]; source Ansynth (#Ansynth 12/46) 2 hours after LPS 10-11 mg/kg, 22 hrs): 3 (2×) and 2 (3×) and 4 | Sickness score of individual mouse ([2]; source Ansynth (#Ansynth 12/46) 2 hours after LPS 10-11 mg/kg, 26 hrs): 3 (2×) and 2 (3×) and 4 | Sickness score of individual mouse ([2]; source Ansynth (#Ansynth 12/46) 2 hours after LPS 10-11 mg/kg, 42 hrs): 2 and 3 and 1 (3×) and 5 | Sickness score of individual mouse ([2]; source Ansynth (#Ansynth 12/46) 2 hours after LPS 10-11 mg/kg, 48 hrs): 1 (5×) and dead | Survival % ([2]; source Ansynth (#Ansynth 12/46) 2 hours after LPS 10-11 mg/kg): 83% | Sickness score of individual mouse ([2]; source Pepscan (#970/#971) 5 mg/kg 2 hours after LPS 10-11 mg/kg, 0 hrs (before peptide)): 0 | Sickness score of individual mouse ([2]; source Pepscan (#970/#971) 5 mg/kg 2 hours after LPS 10-11 mg/kg, 2 hrs (at peptide administration)): 2 | Sickness score of individual mouse ([2]; source Pepscan (#970/#971) 5 mg/kg 2 hours after LPS 10-11 mg/kg, 22 hrs): 2 (4×) and 3 and 4 | Sickness score of individual mouse ([2]; source Pepscan (#970/#971) 5 mg/kg 2 hours after LPS 10-11 mg/kg, 26 hrs): 2 (3×) and 3 (2×) and 5 | Sickness score of individual mouse ([2]; source Pepscan (#970/#971) 5 mg/kg 2 hours after LPS 10-11 mg/kg, 42 hrs): 2 (5×) and dead | Sickness score of individual mouse ([2]; source Pepscan (#970/#971) 5 mg/kg 2 hours after LPS 10-11 mg/kg, 48 hrs): 2 (3×) and 1 (2×) | Survival % ([2]; source Pepscan (#970/#971) 5 mg/kg 2 hours after LPS 10-11 mg/kg): 83%
